{"source": "paper PMC5698967", "about": "“A novel GH10 xylanase from Penicillium sp. accelerates saccharification of alkaline-pretreated bagasse by an enzyme from recombinant Trichoderma reesei expressing Aspergillus β-glucosidase” (Biotechnology for Biofuels, 2017)", "biological_target": "T1, PspXyn10 (Penicillium sp., UniProt A0A2Z5XER4)", "T1 construct": "full-length cDNA (404 residues), predicted signal peptide 1-22 removed on secretion; GH10 (25-336) + CBM1 (372-404); untagged, expressed in Trichoderma reesei C1PX10, purified; 55 kDa on SDS-PAGE; internal peptides LYYNDYNLESAGAK, NHLTNVVTHYK, YAWDVVNEGLNDDGTYR", "T1 sequence (A0A2Z5XER4 23-404)": "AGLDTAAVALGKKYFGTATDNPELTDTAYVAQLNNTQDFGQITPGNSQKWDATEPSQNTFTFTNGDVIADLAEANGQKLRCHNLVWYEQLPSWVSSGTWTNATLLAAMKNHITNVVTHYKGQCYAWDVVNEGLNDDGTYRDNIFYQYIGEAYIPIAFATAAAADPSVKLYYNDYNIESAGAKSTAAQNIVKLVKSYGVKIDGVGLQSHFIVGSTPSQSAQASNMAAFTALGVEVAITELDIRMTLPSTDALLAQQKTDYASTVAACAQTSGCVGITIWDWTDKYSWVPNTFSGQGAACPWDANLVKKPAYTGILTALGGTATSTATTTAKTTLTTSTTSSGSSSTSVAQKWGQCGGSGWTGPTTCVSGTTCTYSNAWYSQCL", "assay": "p-nitrophenol release, absorbance at […] nm", "type": "biochemical", "settings": "1 mM substrate; 50 mM sodium acetate pH 5.0; 50 °C; 5 min"}
{"smiles": "O=[N+]([O-])c1ccc(O[C@@H]2OC[C@@H](O[C@@H]3OC[C@@H](O)[C@H](O)[C@H]3O)[C@H](O)[C@H]2O)cc1", "note": "[pNPX2, p-nitrophenyl xylobioside]", "values": [{"measurement": "specific activity", "result": "enzymatic activity of purified PspXyn10, JN11H, and JNK25H against p-nitrophenyl xylobioside (pNPX2) was assayed"}]}
